Earlier results on one molecule are cited in patent US20090291122A1, “Wound Care Treatment Product” (SANO MEDICAL bvba, priority 2006, published 2009).

This data set concerns E-coli.

For `O=[O+][O-]` [Ozone], the “speed of killing E-coli relative to chlorine” value is 3125 times faster than chlorine.
